Data as given in US11591596B2, “Compounds and compositions including phosphorothioated oligodeoxynucleotide, and methods of use thereof” (City of Hope, priority 2015, dated 2023).

Assays:
miR-126 = experiment: In vitro and in vivo uptake and miR-126 silencing (K562, HUVEC, CD34+CD38- cells, murine CML BM, LTHSC, EC, mice); parameters: species or system human and mouse; conditions: 500 nM in vitro; 5 mg/kg iv in vivo
Description: FIGS. 23A-23K. […] Uptake test measured by flow cytometric analysis at 4 hours (FIG. 23A) and 24 hours (FIG. 23B) after addition of CpG-miR-126 inhibitor-Cy3 (CpG), Ab-NPs (Ab-NP) or TF-NPs (TF-NP) containing miR-126 inhibitor-Cy3, or naked miR-126 inhibitor-Cy3 (labeled as Control in FIGS. 23A and B) in K562 cells. The experiment was replicated twice. miR-126 expression in K562 was measured by Q-RT-PCR at 24 hours (n=3) (FIG. 23C). Uptake in HUVEC (FIG. 23D), human normal (FIG. 23E) and CML (FIG. 23F) CD34^+CD38^− cells at 4 hours after addition of CpG-miR-126 inhibitor-Cy3 (500 nM) was measured by flow cytometry. miR-126 expression in HUVEC (FIG. 23G), normal (FIG. 23H) and CML (FIG. 23I) CD34^+CD38^− cells treated with CpG-miR-126 inhibitor (500 nM) for 24 hours is shown (n=4). […]
FIGS. 25A-25O. […] Murine CML BM, LTHSC and EC cells were treated with CpG-miR-126 inhibitor-Cy3 (500 nM) for 4 hours and then Cy3^+ cells were detected by flow cytometry (FIG. 25A). The cells were also collected at 24 hours and miR-126 expression was determined by Q-RT-PCR (FIG. 25B). Cell cycling was measured by EDU staining at 72 hours after addition of CpG-miR-126 inhibitor in CML BM LTHSC. […] CML mice were treated with CpG-miR-126 inhibitor-Cy3 with one dose (5 mg/kg, iv injection) and Cy3 uptake in BM, LTHSC and EC was measured at 16 hours after treatment by flow cytometry (FIG. 25D). […]

[1] = test system: Normal, cord blood, AML and CML CD34+ cells; experiment: Uptake of CpG-anti-miR126 inhibitor-Cy3 in primary CD34+ cells, Cy3 by flow cytometry; format: cell-based, human; conditions: 500 nM; primary patients' AML and CML CD34+ cells
Description: FIGS. 2A-2D are flow cytometry histograms showing results of uptake tests in normal, cord blood, acute myeloid leukemia (AML), and chronic myeloid leukemia (CML) CD34+ cells. Normal (NL), cord blood (CB), AML and CML34+ cells were cultured with CpG-scramble RNA (500 nM) and CpG-miR126 inhibitor-Cy3 (500 nm) for 16 hours. FIG. 2A is a histogram showing uptake in NL/CB cells with 600 CpG siRNA. FIG. 2B is a histogram showing NL/CB cells with 500 CpG-siRNA. FIG. 2C is a histogram showing uptake in AML cells. FIG. 2D is a histogram showing uptake in CML cells. Uptake was measured by Cy3 expression in these cells by flow cytometry.
Normal, cord blood, AML and CML CD34+ cells were cultured with CpG-anti-miR126 inhibitor-Cy3 or anti-miR126 inhibitor-Cy3 for 16 hours, and the uptake was measured by Cy3 expression in the cells by flow cytometry (FIGS. 2A-2D). All tested cells internalized CpG-anti-miR126-Cy3 but not the anti-miR126-Cy3 with high efficiency.
Normal, cord blood, AML and CML CD34+ cells were cultured with CpG-scramble RNA (500 nM) and CpG-anti-miR126 inhibitor-Cy3 (500 nM) for 24 hours, and then miR126 and RNU44 (ctrl) expression in these cells were analyzed by Q-RT-PCR (FIG. 5). The miR126 expression levels were normalized to RNU44 and calculated by using the comparative 2^−ΔΔCt method.

“5′ G*G*T GCA TCG ATG CAGG*G*G* G*G (SEQ ID NO: 1) xxxxx mCmGmC mAmUmU mAmUmU mAmCmU mCmAmC mGmGmU mAmCmG mA (SEQ ID NO: 17) 3′ [CpG-anti-miR126]” was tested, and the “uptake and gene silencing effects” value (miR-126) was “Effective in vitro and in vivo uptake and gene silencing effects” and the “internalization by primary cells” value [1] was “quickly internalized”.
